Assay results reported in US11318139B2, “Methods for treating brain metastases using combinations of anti-P13K and anti-mTOR agents” (Dana-Farber Cancer Institute, Inc., priority 2016, dated 2022).

Columns and labels:
[1] = statement with literature citation; cited from earlier work
DF-BM354 = assay: In vivo treatment of orthotopic HER2-positive BCBM patient-derived xenograft DF-BM354 (bioluminescence imaging, survival); parameters: species or system mice; details: BKM120 PO 30 mg/kg QD; RAD001 PO 7.5 mg/kg QD; MEK162 PO 15 mg/kg; GNE-317 PO 40 mg/kg QD
Description: Luciferase-expressing tumors were then propagated in mice.
The signals were analyzed with CareStream MI Software.
All compounds were purchased from Haoyuan ChemExpress Co.
GNE-317 obtained from Genetcch was dissolved in 0.5% methylcellulose/0.2% Tween 80 and given oral once/day at 40 mg/kg.

[2] = test system: PI3K pathway signaling (pAKT, pS6RP, p4EBP1), Ki67 and cleaved caspase-3 in DF-BM355 tumors; assay: Pharmacodynamic IHC / Western blot analysis of treated DF-BM355 tumors; details: IHC after 4 days of treatment
Description: Diaminobenzidine (DAB), brightfield staining was performed according to standard protocols using DAB EnVision+™ System (Dako) on paraffin sections. Briefly five micron thick sections were deparaffinized with xylene, followed by gradation washes in 100%, 95%, 80% ethyl alcohol before performing heat antigen retrieval in 10 mM sodium citrate buffer (pH 6.0) for 20 minutes. Subsequently, sections were treated with peroxidase block (Dako) for ten minutes followed by overnight incubation at 4° C. with the following primary antibodies: polyclonal PTEN (Cell Signaling #9559), pS6RP-Ser235/236 (Cell Signaling #2211), p4EBP1-Thr37/46 (Cell Signaling #2855), or cleaved caspase-3 (Cell Signaling #9664) from Cell Signaling; estrogen receptor (ER) (ThermoScientific SP1) or HER2 (ThermoScientific SP3) from ThermoScientific; or progesterone receptor (PR) (Dako PgR 636), CK7 (Dako), GFAP (Dako #z0334), OLIG2 (Dako), or monoclonal mouse anti-Ki67 (Dako MIB-1 or Vector lab #VP K-451) from Dako or Vector lab. […]
Ki67 and cleaved caspase-3 indexes were calculated as a percentage of positive cells in 4-5 random areas of each sample. Images were captured at 40× or 60× magnification and quantifications of Ki67 and cleaved caspase-3 immunoreactivity were performed using the ImmunoRatio plugin provided in the Image J software. […]

Row | Compound | blood-brain barrier penetration [1] | therapeutic response / tumor growth of DF-BM354 (bioluminescence imaging, survival) (DF-BM354) | number of Ki67-positive cells (cell proliferation) in DF-BM355 tumors [2]
1 | COC1(c2sc3c(N4CCOCC4)nc(-c4cnc(N)nc4)nc3c2C)COC1 [GNE-317, 5-(6-(3-methoxyoxetan-3-yl)-7-methyl-4-morpholinothieno[3,2-d]pyrimidin-2-yl)pyrimidin-2-amine] | effectively crossing the blood brain barrier | marked regression | –
2 | Nc1cc(C(F)(F)F)c(-c2cc(N3CCOCC3)nc(N3CCOCC3)n2)cn1 [BKM120, 5-(2,6-dimorpholin-4-ylpyrimidin-4-yl)-4-(trifluoromethyl)pyridin-2-amine] | permeates the blood-brain barrier | neither BKM120 nor RAD001 monotherapy had meaningful effects | did not decrease
3 | CO[C@H]1C[C@@H]2CC[C@@H](C)[C@@](O)(O2)C(=O)C(=O)N2CCCC[C@H]2C(=O)O[C@H]([C@H](C)C[C@@H]2CC[C@@H](OCCO)[C@H](OC)C2)CC(=O)[C@H](C)/C=C(\C)[C@@H](O)[C@@H](OC)C(=O)[C@H](C)C[C@H](C)/C=C/C=C/C=C/1C [RAD001] | demonstrated blood-brain barrier (BBB) penetrance | neither BKM120 nor RAD001 monotherapy had meaningful effects | –
